Assay [1] deals with Mycobacterium tuberculosis. Kind of assay: Inhibition of Mycobacterium tuberculosis Anthranilate phosphoribosyltransferase expressed in Escherichia coli BL21(DE3) pRIL cells harboring PRAI-InGPS assessed as residual activity preincubated for 10 mins followed by anthranilate addition in presence of PRPP relative to control.
Assay [2] in a line: Inhibition of Mycobacterium tuberculosis Anthranilate phosphoribosyltransferase expressed in Escherichia coli BL21(DE3) pRIL cells harboring PRAI-InGPS preincubated for 10 mins followed by anthranilate addition in presence of PRPP.
The test system of assay [3] is Mycobacterium tuberculosis. The assay is described as follows: Antimycobacterial activity against isoniazid/streptomycin resistant Mycobacterium tuberculosis 01-R0348 incubated for 2 weeks. The class given is functional. Conditions: 01-R0348, 336 h.
The subject of assay [4] is Mycobacterium tuberculosis. Kind of assay: Antimycobacterial activity against streptomycin resistant Mycobacterium tuberculosis 98-01436 incubated for 2 weeks. The class given is functional. Conditions: 98-01436, 336 h.
The subject of assay [5] is Mycobacterium tuberculosis. Kind of assay: Antimycobacterial activity against ofloxacin/isoniazid resistant Mycobacterium tuberculosis CI-14 incubated for 2 weeks. Type of assay: functional. Particulars: CI-14, 336 h.
For assay [6], the system named is Mycobacterium tuberculosis. Kind of assay: Antimycobacterial activity against ofloxacin resistant Mycobacterium tuberculosis CI-10 incubated for 2 weeks. The class given is functional. Conditions: CI-10, 336 h.
The subject of assay [7] is Mycobacterium tuberculosis. Kind of assay: Antimycobacterial activity against isoniazid resistant Mycobacterium tuberculosis BAA-812 incubated for 2 weeks. The class given is functional. Particulars: BAA-812, 336 h.

pIC50: −log10 of the molar value. Values after ≈ are worked out from the molar mass of the structure shown.

Take `O=C(O)c1ccccc1Nc1cccc(Nc2ccccc2C(=O)O)c1C(=O)O`: in assay [1], the Activity turned out to be 6%. Besides, in assay [2], the pIC50 was 5.66.
Turning to `N#C[C@@H]1N[C@@H](CO)[C@H]1c1ccc(-c2ccccc2F)cc1`, the MIC90 in assay [3] came out at 1.6 µM (≈ 0.452 µg/mL); in assay [4], 1.6 µM (≈ 0.452 µg/mL); in assay [5], 3 µM (≈ 0.847 µg/mL); in assay [6] it was 1.6 µM (≈ 0.452 µg/mL); in assay [7], 3 µM (≈ 0.847 µg/mL).
On to `Cc1ccc(C(=O)O)c(Nc2c(C)cccc2C(=O)O)c1`, for which the pIC50 in assay [2] is 5.17.
The same measure, in the same setting: the figure for `Cc1cccc(C(=O)O)c1Nc1cc(Cl)ccc1C(=O)O` is 5.24; for `Cc1cccc(C(=O)O)c1Nc1cc(Br)ccc1C(=O)O` it is 5.48.

What is called pIC50 is the negative decadic logarithm of the IC50, by convention in mol/L. In general, MIC90 refers to the lowest concentration that inhibits either 90% of growth or 90% of the strains tested, depending on the study. Higher therefore signals weaker potency.

For the origin of these results see ChEMBL document CHEMBL4402538, “Mycobacterial tryptophan biosynthesis: A promising target for tuberculosis drug development?” (Bioorg Med Chem Lett, 2019).
